Data: the supplement of paper PMC5579334

How the values were obtained:
[1] = system: YST-1; experiment: drug sensitivity score (DSS, CellTiter-Glo viability, 72 h) (DSS (dimensionless)); higher = more sensitive; extreme values may be limits of the assay
Summary of the method: (§1)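 Viability was scored by CellTiter-Glo ATP luminescence, scaled from vehicle to positive-control wells, with duplicates averaged where present. The cells, MPNST lines and primary human Schwann cells at 750–1000 per well, sat 72 h at 37 °C, 5% CO2, in 384-well plates preprinted with each compound at five concentrations in 10-fold steps. Four-parameter logistic fits were run on the data. These fits give drug sensitivity score and relative IC50 censored at the top concentration, and percent inhibition is reported at the top concentration.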

[2] = system: HS-PSS; experiment: as above
Summary of the method: as §1

[3] = system: HS-Sch-2; experiment: as above
Summary of the method: as §1

[4] = system: HS-PSS; experiment: drug sensitivity score (DSS, CellTox-Green cytotoxicity, 72 h) (DSS (dimensionless)); higher = more cytotoxic; extreme values may be limits of the assay
Summary of the method: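 MPNST cell lines and primary human Schwann cells were incubated 72 h at 37 °C in 384-well plates holding five 10-fold compound dilutions. CellTox-Green was added before seeding at a final 1:1000 dilution and reported fluorescence from DNA released by disrupted cells. Signals were scaled to vehicle and positive-control wells, and cultures failing plate quality control were dropped. Drug sensitivity score and relative IC50 come from four-parameter logistic fits, with IC50 censored at the top concentration.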

[5] = system: YST-1; experiment: % inhibition of CellTiter-Glo viability at highest tested concentration (72 h), relative to DMSO and benzethonium chloride controls; higher = more inhibition
Summary of the method: as §1

[6] = system: HS-PSS; experiment: as above
Summary of the method: as §1

[7] = system: HS-Sch-2; experiment: as above
Summary of the method: as §1

SMILES: NCCNc1ccc(NCCN)c2c1C(=O)c1ccncc1C2=O [Pixantrone] (max concentration tested 10000 nM)
- drug sensitivity score [1]: 2.81
- drug sensitivity score [2]: 4.51
- drug sensitivity score [3]: 2.43
- drug sensitivity score [4]: 0
- % inhibition [5]: 54.6%
- % inhibition [6]: 77.4%
- % inhibition [7]: 50.7%

SMILES: OCCn1cc(-c2cnc3nnn(Cc4ccc5ncccc5c4)c3n2)cn1 (max concentration tested 2500 nM)
- drug sensitivity score [1]: 0.62
- drug sensitivity score [2]: 0.05
- drug sensitivity score [3]: 0
- drug sensitivity score [4]: 0
- % inhibition [5]: 18.5%
- % inhibition [6]: 9.08%
- % inhibition [7]: 0.31%

SMILES: Cc1csc(-c2nnc(Nc3ccc(Oc4ncccc4-c4ccnc(N)n4)cc3)c3ccccc23)c1 [AMG-900] (max concentration tested 1000 nM)
- drug sensitivity score [1]: 9.1
- drug sensitivity score [2]: 0.8
- drug sensitivity score [3]: 1.27
- drug sensitivity score [4]: 0
- % inhibition [5]: 29.8%
- % inhibition [6]: 19.6%
- % inhibition [7]: 30%

SMILES: COc1ccc2c(OCc3nnc4ccc(-c5ccccc5)nn34)ccnc2c1 [AMG-208] (max concentration tested 2500 nM)
- drug sensitivity score [1]: 0
- drug sensitivity score [2]: 0.98
- drug sensitivity score [3]: 0
- drug sensitivity score [4]: 0
- % inhibition [5]: -2.81%
- % inhibition [6]: 9.98%
- % inhibition [7]: 7.53%

SMILES: C[C@@H](Nc1cc(F)cc(F)c1)c1cc(C(=O)N(C)C)cc2c(=O)cc(N3CCOCC3)oc12 [AZD-8186] (max concentration tested 1000 nM)
- drug sensitivity score [1]: 1.06
- drug sensitivity score [2]: 0
- drug sensitivity score [3]: 0
- drug sensitivity score [4]: 0
- % inhibition [5]: 28.9%
- % inhibition [6]: -3.47%
- % inhibition [7]: -0.99%

SMILES: CN1CCC(CNc2ccc3ncc(-c4cccc(OC(F)(F)F)c4)n3n2)CC1 [SGI-1776] (max concentration tested 10000 nM)
- drug sensitivity score [1]: 9
- drug sensitivity score [2]: 6.88
- drug sensitivity score [3]: 7.09
- drug sensitivity score [4]: 6.8
- % inhibition [5]: 101%
- % inhibition [6]: 101%
- % inhibition [7]: 101%

SMILES: CNC(=O)c1nn(C)c2c1C(C)(C)Cc1cnc(Nc3ccc(N4CCN(C)CC4)cc3)nc1-2 [Milciclib] (max concentration tested 10000 nM)
- drug sensitivity score [1]: 16.6
- drug sensitivity score [2]: 9.77
- drug sensitivity score [3]: 9.72
- drug sensitivity score [4]: 0.17
- % inhibition [5]: 101%
- % inhibition [6]: 79.3%
- % inhibition [7]: 96%

SMILES: NC(=O)c1cccc(-c2cccc(OC(=O)NC3CCCCC3)c2)c1 [URB597] (max concentration tested 1000 nM)
- drug sensitivity score [1]: 0
- drug sensitivity score [2]: 1.09
- drug sensitivity score [3]: 0
- drug sensitivity score [4]: 0
- % inhibition [5]: -6.54%
- % inhibition [6]: 18.8%
- % inhibition [7]: 0.43%

SMILES: CCNC(=O)Nc1ccc(-c2nc3c(c(N4CCOC[C@@H]4C)n2)CCN(C2COC2)C3)cc1 [RG-7603] (max concentration tested 2500 nM)
- drug sensitivity score [1]: 6.56
- drug sensitivity score [2]: 1.5
- drug sensitivity score [3]: 3.02
- drug sensitivity score [4]: 0
- % inhibition [5]: 56.2%
- % inhibition [6]: 32.4%
- % inhibition [7]: 33.8%

SMILES: C[C@@H](Oc1ccc2[nH]nc(/C=C/c3cnn(CCO)c3)c2c1)c1c(Cl)cncc1Cl (max concentration tested 1000 nM)
- drug sensitivity score [1]: 6.1
- drug sensitivity score [2]: 7.62
- drug sensitivity score [3]: 6.87
- drug sensitivity score [4]: 2.66
- % inhibition [5]: 55.4%
- % inhibition [6]: 91%
- % inhibition [7]: 67.9%

SMILES: COC[C@H](NC(=O)c1cnc(C)s1)C(=O)N[C@@H](COC)C(=O)N[C@@H](Cc1ccccc1)C(=O)[C@@]1(C)CO1 [Oprozomib] (max concentration tested 2500 nM)
- drug sensitivity score [1]: 18.4
- drug sensitivity score [2]: 14.3
- drug sensitivity score [3]: 26.3
- drug sensitivity score [4]: 7.1
- % inhibition [5]: 101%
- % inhibition [6]: 98.3%
- % inhibition [7]: 102%

SMILES: Nc1cc(F)ccc1NC(=O)/C=C/c1cnn(C/C=C/c2ccccc2)c1 [RGFP966] (max concentration tested 10000 nM)
- drug sensitivity score [1]: 5.15
- drug sensitivity score [2]: 4.21
- drug sensitivity score [3]: 4.52
- drug sensitivity score [4]: 0
- % inhibition [5]: 55.7%
- % inhibition [6]: 33.2%
- % inhibition [7]: 52.7%

SMILES: CCNc1nc(Nc2cc(F)c(C(=O)N3CCOCC3)cc2OC)ncc1C(F)(F)F [GNE-7915] (max concentration tested 1000 nM)
- drug sensitivity score [1]: 0
- drug sensitivity score [2]: 0
- drug sensitivity score [3]: 0.19
- drug sensitivity score [4]: 0
- % inhibition [5]: 0.1%
- % inhibition [6]: 8.52%
- % inhibition [7]: 12.4%

SMILES: O=C(O)c1ccc(O)c2ncccc12 [IOX-1] (max concentration tested 100000 nM)
- drug sensitivity score [1]: 2.03
- drug sensitivity score [2]: 0
- drug sensitivity score [3]: 0.26
- drug sensitivity score [4]: 0
- % inhibition [5]: 46%
- % inhibition [6]: 1.4%
- % inhibition [7]: 18.7%

SMILES: COc1cc2nccc(Oc3ccc(NC(=O)NC4CC4)c(Cl)c3)c2cc1C(N)=O [Lenvatinib] (max concentration tested 2500 nM)
- drug sensitivity score [1]: 0.83
- drug sensitivity score [2]: 0
- drug sensitivity score [3]: 0.06
- drug sensitivity score [4]: 0
- % inhibition [5]: 18.1%
- % inhibition [6]: 5.51%
- % inhibition [7]: 15%
